Where “and” joins values, the source holds several entries; their conditions need not be identical. Identical values can stand only once. Entries after “also recorded” stand apart in the source; their conditions may differ.
How the values were obtained:
lymphocyte cells [1] = assay: 4CmC-induced adenosine in human lymphocyte / immortalized B cells (Example 3); type: cell-based; settings: for ADO level at maximum of 4CmC dose response, mean±SEM: 2 mM 4CmC, EHNA 0.1 mM
lymphocyte cells [2] = assay: 4CmC-induced adenosine/inosine in human peripheral blood lymphocytes, HPLC (Example 1); type: cell-based; settings: for 4CmC response (adenosine plus inosine) in MHS group relative to MHN or normal groups: EHNA 0.1 mM
Experimental: FIG. 2 is a dose-response curve for 4-chloro-m-cresol (4CmC)-induced intracellular adenosine plus inosine in lymphocyte cells from malignant hyperthermia susceptible (MHS, n=11), not-susceptible (MHN, n=9), and normal (n=7) subjects. Lymphocyte cells were treated with 4CmC in the presence of an inhibitor of adenosine deaminase (EHNA, 0.1 mM). After purification, aliquot was analyzed for adenosine and inosine content using HPLC. Adenosine plus inosine values in the absence of 4CmC are plotted against X=0.02 mM to allow logarithmic display of the entire dose response curve. Adenosine plus inosine levels were normalized to reflect per 1 million cells. 4CmC responses at 1, 2, and 5 mM on MHS groups are about 4, 4, and 6 fold higher than the corresponding values in MI-1N or normal groups with values of 6×10^−5, 8×10^−5, and […], respectively. There were no overlaps between the MHS group and the MHN or normal groups.
Lymphocyte cells from MHS (n=11), MHN (n=9) and normal (n=7) subjects were suspended in normal HBSS plus 0.1% BSA and treated with adenosine deaminase inhibitor (EHNA, 0.1 mM). After 10 minutes of incubation at 37° C., cells were treated with HBSS, with and without the RyR1 agonist 4CmC (5 mM) and incubated at 37° C. for an additional 45 minutes. After termination and purification of the samples, aliquots (50 μl) were assayed in duplicate for adenosine and inosine content using HPLC. Concentrations are normalized to per 1 million cells. The sum of the adenosine plus inosine level is about 6-fold higher than corresponding values in normal and MHN cells.
Pilot studies were conducted using blood samples from human subjects in the following groups: Group 1: MHS subjects with positive CHCT and/or having a known MH associated mutation (n=11); Group 2: non-MH susceptible with negative CHCT results (MHN) (n=9), and Group 3: normal subjects who had not undergone CHCT and had no family history of MH (n=7).
Briefly, venous blood samples (20 ml) were drawn from patients using heparinized blood collection tubes. Peripheral blood lymphocyte cells were isolated from whole blood by the Ficoll-Hypaque centrifugation technique. Briefly, diluted anti-coagulated blood is layered over Ficoll-Hypaque and centrifuged. Mononuclear cells consisting of lymphocytes and some monocytes are recovered at the interface. The cells were washed with the Flanks' balanced salt solution (HBSS) buffer, re-suspended in the HBSS buffer, and treated with different concentration of 4CmC at 37° C. in the presence and/or absence of inhibitor of adenosine deaminase erythro-9-(2-hydroxy-3-nonyl)adenine (EHNA) for about 30 minutes. The cells were then purified by adding an equal volume of 6% HClO4 and centrifuged at 6000 rpm for 10 minutes. Aliquots of the supernatant were analyzed for adenosine and inosine content with HPLC using a Waters Separation Module (Model 2695) equipped with Waters Photodiode Array Detector and Empower software.

Cc1cc(O)ccc1Cl [4CmC, 4-chloro-m-cresol]
ADO level at maximum of 4CmC dose response, mean±SEM (lymphocyte cells [1]; MHS cells): 1.71 ± 0.13 µM
ADO level at maximum of 4CmC dose response, mean±SEM (lymphocyte cells [1]; normal cells): 0.61 ± 0.11 µM
4CmC-induced adenosine in MHS (CHCT-positive) versus normal / CHCT-negative lymphocyte cells (lymphocyte cells [1]; FIG. 5 and 6): significantly higher; also recorded: significantly greater
4CmC concentration at which ADO levels maximized (lymphocyte cells [1]; human lymphocytes): 2 mM
4CmC response (adenosine plus inosine) in MHS group relative to MHN or normal groups (lymphocyte cells [2]; 1 mM 4CmC): about 4 fold
4CmC response (adenosine plus inosine) in MHS group relative to MHN or normal groups (lymphocyte cells [2]; 2 mM 4CmC): about 4 fold
stimulation of adenosine plus inosine formation in control and MHN samples (lymphocyte cells [2]; 5 mM 4CmC (maximum effective dose)): did not, or minimally stimulated
stimulation of nucleosides formation by 4CmC in MHS samples (lymphocyte cells [2]; 5 mM 4CmC, FIG. 3): ~6 fold
adenosine plus inosine level after 4CmC treatment, mean±SEM (lymphocyte cells [2]; 5 mM 4CmC, MHN group (n=9)): 5.4 ± 0.6 µM
adenosine plus inosine level after 4CmC treatment, mean±SEM (lymphocyte cells [2]; 5 mM 4CmC, MHS group (n=11)): 35.6 ± 3.1 µM
adenosine plus inosine level after 4CmC treatment, mean±SEM (lymphocyte cells [2]; 5 mM 4CmC, normal group (n=7)): 5.6 ± 1 µM
[Adenosine] μM Post 5 mM 4CmC (lymphocyte cells [2]; lymphocytes of single normal subjects, 5 mM 4CmC): 0.220 µM and 0.144 µM and 0.246 µM and 0.154 µM and 0.276 µM and 0.177 µM and 0.268 µM
4CmC concentration at which inosine release reaches saturation (lymphocyte cells [2]; without EHNA): about 5 mM
4CmC concentrations that stimulate inosine release dose-dependently (lymphocyte cells [2]; without EHNA): above 1 mM
effect of 4CmC on adenosine formation (lymphocyte cells [2]; without adenosine deaminase inhibitor): not affected
